# Values quoted from earlier work, collected in patent US20100099775A1, “METHOD FOR AMELIORATING OF POST-ANESTHETIC RECOVERY” (ALPHARX INC., priority 2008, published 2010).
# Columns and labels:
# [1] = system: patients with cerebrovascular disease; settings: 90 mg daily; nine patients
# [2] = system: cultured cortical neurons; settings: also when applied 30 min after the NMDA pulse
# [3] = system: Friedreich's Ataxia patients; settings: oral 5 mg/kg daily for 8 weeks
# [4] = system: patients; settings: 5 mg/kg daily for 4-9 months; three patients
smiles,measurement,setting,value
"COC1=C(OC)C(=O)C(CCCCCCCCCCO)=C(C)C1=O [Idebenone, 2,3-dimethoxy-5-methyl-6-(10-hydroxydecyl)-1,4 benzoquinone]",EEG and clinical symptoms,[1],improvements
same,protection of cortical neurons against necrotic degeneration,[2],rescued cortical neurons
same,marker of oxidative DNA damage,[3],significantly decreased
same,left ventricular enlargement,[4],reduction
same,Solubility in fixed oils,"fixed oils (soy, corn, almond, etc.)",low
same,water solubility,water,Low
